Source: patent publication US9572862B2, “Methods for promoting lipolysis and oxidation in liver and adipose tissue using catestatin” (The Regents of the University of California, priority 2012, dated 2017)
“Also recorded” adds a separate entry of the source. Non-standard residues stand in square brackets, D forms with d.

Columns and labels:
[1] = test system: 3T3-L1 adipocytes; assay: cAMP production in 3T3-L1 adipocytes; assay type: cell-based; conditions: CST 100 nM, ISO 10 μM, 10 min
[2] = test system: PC-12 neuroendocrine cells; assay: cAMP production in PC-12 cells; assay type: cell-based; conditions: CST 100 nM, ISO 10 μM, 10 min
[3] = molecular target: Chk2 protein kinase (Homo sapiens, UniProt O96017); conditions: Jobson et al. (9); cited from earlier work
Chain of Chk2 protein kinase (O96017 whole entry): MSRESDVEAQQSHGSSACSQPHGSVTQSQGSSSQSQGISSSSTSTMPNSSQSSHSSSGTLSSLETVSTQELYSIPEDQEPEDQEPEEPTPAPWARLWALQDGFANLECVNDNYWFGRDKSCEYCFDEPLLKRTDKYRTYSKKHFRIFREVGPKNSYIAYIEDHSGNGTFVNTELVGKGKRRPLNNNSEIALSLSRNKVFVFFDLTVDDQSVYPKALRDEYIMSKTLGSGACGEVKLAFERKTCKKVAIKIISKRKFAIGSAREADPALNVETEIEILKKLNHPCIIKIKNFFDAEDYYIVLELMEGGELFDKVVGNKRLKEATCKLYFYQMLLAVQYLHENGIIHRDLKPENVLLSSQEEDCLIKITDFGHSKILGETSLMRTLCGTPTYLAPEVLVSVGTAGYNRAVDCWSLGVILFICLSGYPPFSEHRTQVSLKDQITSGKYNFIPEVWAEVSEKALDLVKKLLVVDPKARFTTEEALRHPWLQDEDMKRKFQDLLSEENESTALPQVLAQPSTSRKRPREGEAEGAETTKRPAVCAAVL

[4] = Screening of CST structural analogs for blood pressure reduction; conditions: in vivo
[5] = test system: CST-KO mice; assay: ITT in insulin resistant CST-KO mice with CST, RI-CST or NSC-177941; assay type: in vivo; conditions: for insulin sensitivity during ITT: NCD-fed CST-KO mice, insulin 0.4 mU/g BW
Description: FIG. 16. […] Figures in parentheses indicate number of animals.

[6] = test system: primary adipocytes; assay: Lipolytic glycerol release from primary adipocytes; assay type: cell-based, mice; conditions: for effect on the lipolytic effect of isoproterenol: adipocytes, with isoproterenol 10 μM
Experimental: Mice were fasted for 12 hr prior to blood draw. Triglycerides (TG) and non-esterified fatty acids (NEFA) were assayed using kits from Wako Diagnostics (Richmond, Va.). Glycerol was assayed using a kit from Sigma (St Louis, Mo.). Media from the explant cultures and mouse serum were analysed for glycerol and NEFA as a measure of lipolysis. ELISA kits were used to determine plasma levels of leptin, adiponectin (Millipore, Billerica, Mass.) and CST (Bachem, Torrance, Calif.). For CST assay, plasma samples and reference standards were passed through mini C18 columns and the flow-through fractions were assayed. The same kits were used for measurements in culture media.
Primary adipocytes were isolated from epididymal fat pads essentially as described (43). Adipose tissues from WT and Chga-KO mice were minced in Krebs-Ringer bicarbonate-Hepes (KRBH) buffer, pH 7.4, containing 10 mM bicarbonate, 30 mM Hepes, 200 nM adenosine, 2.5 mM glucose and 1% fatty-acid-free BSA, and digested for 30-40 min with Type I collagenase (10 mg/g tissue; Invitrogen, Carlsbad, Calif.) with gentle swirling in a 37° C. incubator. The digestion mixture was then filtered through a nylon strainer and centrifuged at 400×g for 1 min. The oily layer (released from broken cells) above floating fat cells was skimmed off, and fat cells were recovered from the top and washed three times with warm KRBH.

[7] = test system: HFD-fed Chga-KO mice; assay: Peptide supplementation to HFD-fed Chga-KO mice (insulin sensitivity); assay type: in vivo; conditions: HFD (60%)-fed Chga-KO mice
[8] = reference (8); cited from earlier work
[9] = test system: Chga-/- mice; assay: Blood pressure in hypertensive Chga-KO mice; assay type: in vivo
[10] = test system: Chga-/- mice; conditions: reference (8), cited from earlier work
[11] = test system: STAT3 and AMPK phosphorylation; assay: Stat3 and AMPK signaling in adipose explants from DIO mice; assay type: cell-based; conditions: CST in vivo, leptin 1 μM ex vivo 30 min
Experimental: (§1) FIG. 9. Stat3 and AMPK signaling in the adipose tissue explants from DIO and Ob/Ob mice treated with saline, CST (in vivo) and leptin (ex vivo). Explants from DIO mice (A&B) and Ob/Ob mice (C&D) were incubated with saline or leptin (1 μM) for 30 min, homogenized and immunoblotted for phospho- and total Stat3 (A&C) as well as phospho- and total AMPK signals (B&D). Results are presented as the ratio of signal strength of phospho-over total.
(§2) Adipose tissue explants were prepared as described (42). Epididymal fat pads from 12 hr fasted WT, Chga-KO, DIO and Ob/Ob mice with or without CST treatment were collected in Kreb-Ringer-phosphate (KRP) buffer containing 10 mM Hepes and 0.5% BSA. Tissues were minced to 1-2 mm size and treated with 100 nM CST, 1 μM leptin, or saline for 30 min (for signaling analysis) or 3 hr (for lipolysis and β-oxidation assays). Explants were also treated acutely with CST, leptin, a combination, or saline. At the end, incubation media were saved for analysis of glycerol and fatty acid release. Explants were washed prior to homogenization for immunoblotting and analysis of fatty acid oxidation.
(§3) Adipose tissue explants after treatments ex vivo and tissues from mice treated in vivo were homogenized in a buffer containing phosphatase and protease inhibitors (20 mM Tris/HCl (pH 7.5), 250 mM sucrose, 2 mM EDTA, 2 mM EGTA, 2 mM Na3VO4, 10 mM NaF, 2 mM Na4P2O7, 1 mM phenylmethylsulfonyl fluoride, 20 μg/ml leupeptin, 10 μg/ml aprotinin, and 1 μM LR-microcystin) as described (38,44). Homogenates were subjected to SDS-PAGE and immunoblotted. Primary antibodies for AMPK and Stat3 were from Cell Signaling Technology (Beverly, Mass.). The chemiluminescence kit was from Pierce (Rockford, Ill.).

[12] = test system: STAT3 and AMPK phosphorylation; assay: Stat3 and AMPK signaling in adipose explants from Ob/Ob mice; assay type: cell-based; conditions: CST in vivo, leptin 1 μM ex vivo 30 min
Experimental: as §1, §2, §3

[13] = test system: adipose tissue explants from Ob/Ob mice; assay: Lipolysis and fatty acid oxidation in adipose explants of Ob/Ob mice; assay type: cell-based
Experimental: (§4) FIG. 8. Lipolysis and fatty acid oxidation in the adipose tissue explants of DIO and Ob/Ob mice after treatment with saline or CST for 16 days. Explants were incubated with saline or leptin (1 μM) for 3 hr and the concentrations of glycerol (A&C) and NEFA (B&D) released into the media from DIO (A&B) and Ob/Ob (C&D) explants were determined as a measure of lipolysis. Homogenates of the explants from DIO (E) and Ob/Ob […] were used to determine their capacity for oxidation of U-^14C-palmitate in response to the treatment with saline, CST, leptin and CST+leptin. The ^14CO2 released was captured and counted as the measure of fatty acid oxidation.
as §2
(§5) Oxidation of radiolabeled palmitate in the homogenates of adipose tissue explants as described previously (45). For oxidation studies of cultured cells, HepG2 (hepatocytes) and 3T3-L1 preadipocytes were obtained from ATCC and cultured following supplier's protocol. Confluent 3T3-L1 cultures were differentiated into adipocytes by treating with a cocktail of dexamethasone (100 nM), IBMX ([…]) and insulin (100 nM) for 10 days. Media were then switched to serum-free DMEM with 1% BSA. Hepatocytes were assayed for lipogenesis and fat oxidation in response to CST treatment. Serum-free cultures were treated with CST (100 nM) for 24 hr followed by a 2 hr incubation with U^14C-palmitate (0.5 μCi/ml). Fatty acid oxidation in cells was determined by modifying a published method (46). Specifically, the culture media in 24-well plates were acidified with 10% HClO4 after incubation with the labeled fatty acid and immediately covered with a thick filter paper sheet (cut to size) soaked in 2 N NaOH and placed underneath the plastic lid. The whole plate was sealed with parafilm. After further incubation for 2 hr, the filter paper sheet was marked as circles around the rim of the wells and then the circles were excised. The filter discs were counted to determine the amount of ^14CO2 absorbed in the papers. Cells in the culture wells were lysed in 1 N NaOH and protein content was assayed using Folin's reagent (BioRad, Hercules, Calif.).

[14] = test system: AMPK and Stat3 phosphorylation; assay: AMPK and Stat3 signaling in adipose tissue explants from Chga-KO mice; assay type: cell-based; conditions: leptin 1 μM 30 min
Experimental: FIG. 6. Regulation of AMPK and Stat3 signaling by CST in adipose tissue explants. Explants from Chga-KO mice were treated with saline or CST (100 nM for 30 min) and immunoblotted for pAMPK and AMPK (A). Adipose explants from WT and Chga-KO mice were immunoblotted for pAMPK and AMPK after treatment with saline or leptin (1 μM) for 30 min (B). pAMPK and AMPK (C) and pStat3 and Stat3 (D) signaling in adipose explants from WT and Chga-KO mice after treatment for 30 min with saline, CST (100 nM), leptin (1 μM) or leptin plus CST.
as §2, §3

[15] = test system: adipose tissue explants from DIO mice; assay: Lipolysis and fatty acid oxidation in adipose explants of DIO mice; assay type: cell-based
Experimental: as §4, §2, §5

[16] = CST in vivo 16 days, leptin 1 μM ex vivo 3 hr

## CC(C)NCC(O)c1ccc(O)c(O)c1 (racemic) [isoproterenol, (RS)-4-[1-hydroxy-2-(isopropylamino)ethyl]benzene-1,2-diol, reference compound]
[1]
  cAMP production: stimulated
[2]
  cAMP production: stimulated

## C/C(=N\N=C(N)N)c1cccc(NC(=S)Nc2cccc(/C(C)=N/N=C(N)N)c2)c1 [NSC-177941, 1,3-bis[3-[(E)-N-(diaminomethyllideneamino)-C-methylcarbonimidoyl]phenyl]thiourea]
[3]
  inhibition of Chk2 protein kinase activity: inactive
[4]
  blood pressure: reducing blood pressure
[5]; ITT in CST-KO mice
  effect on insulin sensitivity in the first 30 min: ineffective
  time window of increase in insulin sensitivity: 30 to 90 min
[5]
  insulin sensitivity during ITT: transient increase in insulin sensitivity
[5]; listed as NSC-177941
  insulin sensitivity during ITT: Improvement in insulin sensitivity

## Cc1ccc(N(CC2=NCCN2)c2cccc(O)c2)cc1 [phentolamine, 3-[(4,5-dihydro-1H-imidazol-2-ylmethyl)(4-methylphenyl)amino]phenol]
[6]
  effect on the lipolytic effect of isoproterenol: potentiated
[6]; primary adipocytes, substance alone
  glycerol release (lipolysis): stimulated lipolysis

## CNC[C@H](O)c1cccc(O)c1 [phenylephrine, (R)-3-[-1-hydroxy-2-(methylamino)ethyl]phenol]
[6]
  effect on the lipolytic effect of isoproterenol: dampened

## PST: anti-insulin CHGA-derived peptide pancreastatin (CHGA250-301) [reference compound]
[7]
  insulin sensitivity (GTT): reversed the phenotype

## amino-l372qpGpGrfGyararfslkmss352-carboxyl (SEQ ID NO:27) (H-[dL][dQ][dP]G[dP]G[dR][dF]G[dY][dA][dR][dA][dR][dF][dS][dL][dK][dM][dS][dS]-OH; SMILES CSCC[C@@H](NC(=O)[C@@H](CCCCN)NC(=O)[C@@H](CC(C)C)NC(=O)[C@@H](CO)NC(=O)[C@@H](Cc1ccccc1)NC(=O)[C@@H](CCCNC(=N)N)NC(=O)[C@@H](C)NC(=O)[C@@H](CCCNC(=N)N)NC(=O)[C@@H](C)NC(=O)[C@@H](Cc1ccc(O)cc1)NC(=O)CNC(=O)[C@@H](Cc1ccccc1)NC(=O)[C@@H](CCCNC(=N)N)NC(=O)CNC(=O)[C@H]1CCCN1C(=O)CNC(=O)[C@H]1CCCN1C(=O)[C@@H](CCC(N)=O)NC(=O)[C@H](N)CC(C)C)C(=O)N[C@H](CO)C(=O)N[C@H](CO)C(=O)O) [RI-CST, retro-inverso peptide equivalent of human CST]
[8]
  protease degradation: fairly resistant
[5]; ITT in CST-KO mice
  persistence of the insulin-sensitizing effect: persisted throughout the experimental period
[5]
  insulin sensitivity during ITT: increasing sensitivity to insulin; also recorded: Improvement in insulin sensitivity
[9]; R-I versus W-T isoform
  interval for which the therapeutic BP effect was sustained: > 8 h
[9]; monogenic model of hypertension
  high BP phenotype: effective in rescuing (reducing) the high BP phenotype
[10]; compared to CST
  period of BP suppression: > 8 h
[10]; hypertensive Chga-KO mice
  SBP: functional in reducing SBP

## leptin: adipokine hormone, ligand of leptin receptor (Ob-R)
[11]
  AMPK phosphorylation: did not stimulate
  STAT3 phosphorylation: did not stimulate
[12]
  AMPK phosphorylation: stimulated phosphorylation
  STAT3 phosphorylation: stimulated phosphorylation
[13]
  palmitate oxidation: stimulatory for oxidation
[13]; [16]
  lipolysis (glycerol and NEFA release): stimulated lipolysis
[14]
  phosphorylation of AMPK following acute leptin treatment, compared to WT: decreased
  phosphorylation of STAT3 following acute leptin treatment, compared to WT: decreased
[15]
  palmitate oxidation: neither CST nor leptin alone stimulated oxidation
[15]; [16]
  NEFA release in the media: did not stimulate lipolysis
  glycerol release in the media: did not stimulate lipolysis
